In paper PMC10755728, “Inhibitors of the Elastase LasB for the Treatment of Pseudomonas aeruginosa Lung Infections” (ACS Central Science, 2023):
Read-outs that look alike come from different tables or passages of the source.

How the values were obtained:
[1] = target: T1, MMP-3 (Homo sapiens, UniProt P08254); experiment: MMP-3 inhibition assay; type: biochemical; conditions: read-out: % inhibition MMP-3
T1 construct: purchased AnaSpec (Fremont, CA, USA)

[2] = system: HEK293; conditions: human, 48 h, 100 µM
[3] = target: T2, COX-1 (Ovis aries, UniProt P05979); experiment: Fluorometric COX-1 inhibitor assay; type: biochemical, human
T2 construct: purchased Abcam (Cambridge, UK)
T2 sequence (P05979 25-600): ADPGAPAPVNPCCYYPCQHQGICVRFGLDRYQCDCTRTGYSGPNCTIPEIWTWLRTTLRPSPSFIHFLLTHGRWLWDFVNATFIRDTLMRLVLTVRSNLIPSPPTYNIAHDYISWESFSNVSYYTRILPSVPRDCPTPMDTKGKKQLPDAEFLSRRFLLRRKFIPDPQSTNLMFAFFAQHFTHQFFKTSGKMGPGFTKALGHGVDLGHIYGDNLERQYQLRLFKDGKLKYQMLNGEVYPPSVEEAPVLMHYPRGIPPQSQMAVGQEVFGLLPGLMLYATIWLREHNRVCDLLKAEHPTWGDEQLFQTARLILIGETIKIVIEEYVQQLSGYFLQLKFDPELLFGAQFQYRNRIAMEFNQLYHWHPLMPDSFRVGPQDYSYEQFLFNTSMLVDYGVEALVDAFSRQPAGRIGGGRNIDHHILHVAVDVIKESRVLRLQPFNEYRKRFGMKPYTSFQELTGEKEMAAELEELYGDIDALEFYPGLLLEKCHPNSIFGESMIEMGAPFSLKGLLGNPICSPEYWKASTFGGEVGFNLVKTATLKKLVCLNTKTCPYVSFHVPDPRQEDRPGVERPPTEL

[4] = system: HepG2; conditions: human, 48 h, 100 µM
Description: Culturing of HepG2, A549 and HEK293 cells. The human hepatocellular carcinoma cell line HepG2, the lung adenocarcinoma cell line A549 and Human Embryonic (HEK) 293 cells were cultured in Dulbecco's Modified Eagle Medium (DMEM), containing 10% Fetal Bovine Serum
(FBS) and 1% penicillin-streptomycin mixture. Cells were maintained according to standard cell
Cytotoxicity assay. An MTT-based assay was employed to evaluate the viability of HepG2,
HEK293 and A549 cells after challenge with selected LasB inhibitors and performed as described

[5] = system: zebrafish embryos; experiment: Zebrafish embryo toxicity
Description: Zebrafish embryo toxicity. The experiment was performed according to a procedure described
in the literature55 with minor modifications using zebrafish embryos of the AB wild-type line at 1
day post fertilization (dpf).
Zebrafish embryo toxicity.

[6] = target: T3, LasB (Pseudomonas aeruginosa, UniProt Q02RJ6); experiment: biochemical; type: biochemical
T3 construct: made in house
T3 sequence (Q02RJ6 198-498): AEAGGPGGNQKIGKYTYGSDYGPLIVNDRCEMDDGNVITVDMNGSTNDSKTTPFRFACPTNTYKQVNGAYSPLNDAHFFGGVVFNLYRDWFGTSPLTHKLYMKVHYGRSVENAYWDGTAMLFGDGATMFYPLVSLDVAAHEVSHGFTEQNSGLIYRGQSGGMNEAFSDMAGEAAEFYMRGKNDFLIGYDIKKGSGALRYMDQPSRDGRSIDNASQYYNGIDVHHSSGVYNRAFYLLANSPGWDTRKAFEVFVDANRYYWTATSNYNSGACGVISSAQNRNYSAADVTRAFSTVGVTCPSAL

[7] = in vivo; conditions: mice, nebulization 10 mg/kg; for Cmax / Tmax: 10 mg/kg
Description: Up to 5 compounds were dosed per cassette.
anesthetized using ketamine 100 mg/kg and xylazine 10 mg/kg intraperitoneally.
time point) were euthanized at t= 0.5, 2 and 5 h post administration.
10 mg/kg using a Kent Scientific Aeroneb® nebulizer.
Blood was collected from the heart.
blood was collected into Eppendorf tubes coated with 0.5 M EDTA and immediately spun down
at 13,000 rpm for 10 min at 4 °C. The plasma was transferred into a new Eppendorf tube and then
stored at –80 °C until analysis. Then, a broncheoalveolar lavage was conducted using isotonic
sodium chloride solut ion. Lung, kidneys, and liver were aseptically removed and homogenized
using a Polytron tissue homogenizer (Kinematica) in isotonic sodium chloride solution.
samples were aliquoted into Eppendorf tubes and stored at –80 °C until analysis.
spontaneous urine was also collected. Bioanalytical sample preparation.
an AB Sciex QTrap6500+ mass spectrometer. First, a calibration curve was prepared by spiking
Caffeine was used as an internal standard.
min at 2,000 rpm on an Eppendorf MixMate® vortex mixer.
caffeine as internal standard for 5 min at 2000 rpm on an Eppendorf MixMate® vortex mixer.
Then samples (plasma and urine) were spun down at 1 3,000 rpm for 5 min. Supernatants were transferred to standard HPLC -glass vials.
tissue sample (calibration samples, QCs or PK samples) were extracted with 50 µL of methanol
and 1 µL caffeine (concent ration 1 µg/mL in methanol) for 5 min at 800 rpm on an Eppendorf MixMate® vortex mixer. Then samples (BALF, liver, kidney, lung) were spun down at 4,000 rpm
for 40 min at 4 °C. Supernatants were transferred to 96well V -bottom plates (Greiner).
conditions were as follows: column: Agilent Zorbax Eclipse Plus C18, 50x2.1 mm, 1.8 µm;
temperature: 30 °C; injection volume: 5 µL; flow rate: 700 µL/min; solvent A: water + 0.1%
Urea was used to enable calculation of
epithelial lining fluid (ELF) concentrations. Peak areas of each sample and of the corresponding
internal standard were analyzed using MultiQuant 3.0 software (AB Sciex).
respective sample were normalized to the internal standard peak area.
compound were used for qualification.
curve. The accuracy of the calibration curve was determined using QCs independently prepared
on different days. PK parameters were determined using a non-compartmental analysis with

[8] = Microsomal stability, rat liver microsomes; type: in vitro ADME; conditions: Wistar, pooled liver microsomes
[9] = Plasma stability, minipig; type: in vitro ADME; conditions: Göttingen, pooled plasma, species profiling, read-out: Plasma T1/2 Minipig (Göttingen)
[10] = target: T4, TACE (Homo sapiens, UniProt P78536); experiment: TACE inhibitor screening kit; type: biochemical; conditions: read-out: % inhibition TACE
T4 construct: purchased Sigma-Aldrich (Saint Louis, MO)
T4 sequence (P78536 215-824): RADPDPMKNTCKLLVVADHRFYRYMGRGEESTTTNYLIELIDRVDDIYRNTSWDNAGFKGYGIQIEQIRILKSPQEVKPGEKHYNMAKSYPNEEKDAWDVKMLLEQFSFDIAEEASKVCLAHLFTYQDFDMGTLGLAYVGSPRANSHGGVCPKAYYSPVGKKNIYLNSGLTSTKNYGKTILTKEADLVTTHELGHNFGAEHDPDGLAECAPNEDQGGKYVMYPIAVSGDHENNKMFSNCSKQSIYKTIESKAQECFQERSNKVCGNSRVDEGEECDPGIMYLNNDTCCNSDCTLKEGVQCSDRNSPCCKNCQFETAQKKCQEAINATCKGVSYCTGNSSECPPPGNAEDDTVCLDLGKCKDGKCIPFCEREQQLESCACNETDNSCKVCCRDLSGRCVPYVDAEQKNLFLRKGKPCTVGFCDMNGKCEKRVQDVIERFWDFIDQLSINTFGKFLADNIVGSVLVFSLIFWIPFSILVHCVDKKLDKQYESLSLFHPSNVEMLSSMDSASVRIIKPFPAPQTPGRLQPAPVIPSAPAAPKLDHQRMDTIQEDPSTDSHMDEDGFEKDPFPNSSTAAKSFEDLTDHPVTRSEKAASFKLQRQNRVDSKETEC

[11] = system: A549 cells treated with P. aeruginosa PAO1 and PA14 supernatants; experiment: A549 cells challenged with P. aeruginosa culture supernatants
Description: Cells were maintained according to standard cell
PA14 csn production. The csn of wt PA14 and ΔlasB PA14 was produced as we previously
Validation of the effect of LasB inhibitors on A549 cells in vitro. The experiment was performed
as described previously.32 The Picrosirius red assay was performed by washing the csn-challenged
cells (± inhibitor) 3x with PBS followed by an incubation with Bouin solution (Sigma) at RT for
20 min. The cells were incubated with 0.1% Picrosirius red dye (ab150681) at RT for 2 h. Then,
they were washed once with 0.01 N HCl, and the matrix was dissolved in 0.01 N NaOH. The
absorption was measured at 570 nm using a PHERAstar plate reader (BMG Labtech). By dividing
the absorbance of each sample by the absorbance of the healthy sample, the relative collagen
quantity was determined. For each condition, the experiment was performed three times. To
determine the rescue of A549 cells treated with 5% wt PA14 csn using our compounds, the LasB
inhibitors were used at 2, 0.5, 0.1 and 0.05 µM. The compounds were incubated in F12K medium,
Cell detachment was then evaluated, and a Trypan Blue cell
cells/well were seeded into a flat bottom 96-well plate (Corning™ Costar™) and incubated at 37
were tested against 10% (v/v) P. aeruginosa PAO1 csn diluted in DMEM starting from 10 µM
and 20 µM, respectively. Compound was initially dissolved in DMSO, and a low final assay
concentration of 0.5% (v/v) was applied to minimize the proteolytic effect of DMSO on the
bacterial culture supernatant. In addition, cells were challenged with 10% (v/v) of ΔlasB PAO1 to

[12] = target: ColH-PD (Hathewaya histolytica, UniProt Q46085); experiment: biochemical; type: biochemical, Clostridium histolyticum; conditions: read-out: % inhibition ColH-PD @1 µM
Chain of ColH-PD (Q46085 331-721 limits assumed): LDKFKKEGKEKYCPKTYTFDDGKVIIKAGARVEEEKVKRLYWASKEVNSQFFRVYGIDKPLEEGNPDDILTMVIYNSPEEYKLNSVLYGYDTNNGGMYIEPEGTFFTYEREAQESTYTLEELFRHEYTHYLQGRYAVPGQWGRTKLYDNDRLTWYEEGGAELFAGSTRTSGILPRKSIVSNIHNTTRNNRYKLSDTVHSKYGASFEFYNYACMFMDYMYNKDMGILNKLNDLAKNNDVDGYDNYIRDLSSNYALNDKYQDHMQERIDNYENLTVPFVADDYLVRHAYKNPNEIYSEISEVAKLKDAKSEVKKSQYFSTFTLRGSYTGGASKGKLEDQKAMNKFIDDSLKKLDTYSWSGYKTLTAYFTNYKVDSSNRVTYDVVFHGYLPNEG

[13] = system: P. aeruginosa PA14; experiment: Bacterial growth inhibition assay; type: cell-based, Pseudomonas aeruginosa
Description: Bacterial growth inhibition assay. Assays regarding the determination of the MIC were
performed as described recently for P. aeruginosa PA14.58

[14] = target: T5, MMP-2 (Homo sapiens, UniProt P08253); experiment: MMP-2 inhibition assay; type: biochemical; conditions: read-out: % inhibition MMP-2
T5 construct: purchased AnaSpec (Fremont, CA, USA)
T5 sequence (P08253 110-660): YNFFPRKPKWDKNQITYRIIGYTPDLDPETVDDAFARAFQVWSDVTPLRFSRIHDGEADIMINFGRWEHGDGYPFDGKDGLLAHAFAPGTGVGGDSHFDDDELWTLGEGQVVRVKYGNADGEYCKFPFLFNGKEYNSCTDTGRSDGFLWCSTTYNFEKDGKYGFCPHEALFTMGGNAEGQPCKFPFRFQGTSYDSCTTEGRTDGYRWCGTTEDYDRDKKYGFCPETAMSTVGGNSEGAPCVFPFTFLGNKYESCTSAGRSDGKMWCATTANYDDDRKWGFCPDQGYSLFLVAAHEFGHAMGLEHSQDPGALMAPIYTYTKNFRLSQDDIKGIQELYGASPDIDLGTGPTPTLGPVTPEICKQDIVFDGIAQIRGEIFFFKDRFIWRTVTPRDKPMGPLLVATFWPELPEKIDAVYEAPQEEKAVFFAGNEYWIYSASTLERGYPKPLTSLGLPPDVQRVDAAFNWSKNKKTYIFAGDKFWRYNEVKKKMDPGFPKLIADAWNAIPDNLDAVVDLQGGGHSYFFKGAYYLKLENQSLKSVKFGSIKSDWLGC

[15] = target: T6, MMP-1 (Homo sapiens, UniProt P03956); experiment: MMP-1 inhibition assay; type: biochemical; conditions: read-out: % inhibition MMP-1
T6 construct: purchased AnaSpec (Fremont, CA, USA)
T6 sequence (P03956 100-469): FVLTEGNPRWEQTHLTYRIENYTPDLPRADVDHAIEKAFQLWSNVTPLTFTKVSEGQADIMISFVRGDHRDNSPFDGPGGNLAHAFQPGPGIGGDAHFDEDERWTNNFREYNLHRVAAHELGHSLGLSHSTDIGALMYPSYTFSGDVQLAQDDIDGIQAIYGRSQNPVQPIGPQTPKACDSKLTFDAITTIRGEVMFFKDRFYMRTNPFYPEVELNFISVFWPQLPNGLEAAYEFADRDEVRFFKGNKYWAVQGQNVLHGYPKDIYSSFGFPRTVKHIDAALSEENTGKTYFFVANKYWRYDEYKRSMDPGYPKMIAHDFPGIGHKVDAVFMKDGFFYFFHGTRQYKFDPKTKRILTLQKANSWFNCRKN

[16] = Metabolic stability in mouse liver S9 fraction; type: in vitro ADME

T1 sequence (P08254 100-477): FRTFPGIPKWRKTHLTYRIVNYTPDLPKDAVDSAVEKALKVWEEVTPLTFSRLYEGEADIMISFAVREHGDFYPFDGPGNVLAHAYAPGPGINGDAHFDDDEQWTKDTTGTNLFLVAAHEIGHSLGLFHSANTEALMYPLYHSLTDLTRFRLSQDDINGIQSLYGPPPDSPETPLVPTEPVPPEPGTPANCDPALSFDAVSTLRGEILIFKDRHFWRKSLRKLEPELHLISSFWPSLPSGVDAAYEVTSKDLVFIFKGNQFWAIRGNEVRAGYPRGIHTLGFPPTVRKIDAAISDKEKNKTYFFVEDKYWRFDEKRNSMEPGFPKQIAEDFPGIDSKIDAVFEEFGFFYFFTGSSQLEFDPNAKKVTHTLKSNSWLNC

CC(C)CC(C(=O)Nc1ccc(C(F)(F)F)cc1)P(=O)(O)O (stereo not shown) [Compound 4b]
inhibition at 100 µM [1]: 29 ± 8%
% growth inhibition HEK293 [2]: 11 ± 1%
inhibition at 100 µM [3]: < 10%
% growth inhibition HepG2 [4]: 18 ± 11%
Survival rate ([5]; 12.5 µM): 100%
Survival rate ([5]; 25 µM): 100%
Screening observations ([5]; 25 µM, 5 dpf): 1 nsb
Survival rate ([5]; 50 µM): 100%
Screening observations ([5]; 50 µM, 5 dpf): 2 nsb
Survival rate ([5]; 100 μM): 100%
Screening observations ([5]; 100 µM, 3 dpf): 1 edema
Screening observations ([5]; 100 µM, 4 dpf): 1 edema
Screening observations ([5]; 100 µM, 5 dpf): 1 nsb, 1 edema
IC50 ([6]; FRET-based assay, read-out: LasB IC50): 26.3 ± 7.6 nM
IC50 ([6]; LasB IC50, FRET-based assay): ~25 nM
IC50 ([6]; LasB IC50 in presence of 1% pulmonary surfactant, 1% pulmonary surfactant): 76 ± 23 nM
Kp ([7]; male, CD-1, mouse, ELF/plasma, inhaled, read-out: ELF/plasma ratio): 6.12
Cmax ([7]; male, CD-1, mouse, epithelial lining fluid (ELF), inhaled or intranasal, read-out: Cmax ELF): 19900 ± 14000 ng/mL
Tmax ([7]; male, CD-1, mouse, epithelial lining fluid (ELF), inhaled or intranasal, read-out: Tmax ELF): 0.58 ± 0.4 h
AUC(0-t) ([7]; male, CD-1, mouse, epithelial lining fluid (ELF), inhaled or intranasal, read-out: AUC 0-t ELF): 49700 ± 16200 ng·h/mL
CL/F ([7]; male, CD-1, mouse, inhaled or intranasal, plasma): 20.7 ± 2 mL/min/kg
Tmax ([7]; male, CD-1, mouse, lung, inhaled or intranasal, read-out: Tmax lung): 0.33 ± 0.1 h
Cmax ([7]; male, CD-1, mouse, plasma, inhaled or intranasal, read-out: Cmax plasma): 633 ± 59 ng/mL
Tmax ([7]; male, CD-1, mouse, plasma, inhaled or intranasal, read-out: Tmax plasma): 4 ± 3.5 h
MRT ([7]; male, CD-1, mouse, plasma, inhaled or intranasal): 6.8 ± 0.3 h
AUC(0-t) ([7]; male, CD-1, mouse, plasma, inhaled or intranasal, read-out: AUC 0-t plasma): 8130 ng·h/mL
half-life ([7]; male, CD-1, mouse, plasma, inhaled or intranasal, read-out: t1/2 plasma (converted)): 4 ± 0.3 h
AUC 0-t lung [7]: 249.0 ± 72.9 ng·h/g
Cmax lung [7]: 78.4 ± 15.9 ng/g
microsomal CLint [8]: < 11.6 µL/min/mg
half-life [9]: > 4 h
inhibition at 100 µM [10]: < 10%
reduction of cleavage of collagen ([11]; A549 cells, 15% (v/v) wt PA14 csn, 3.15 μM): 20%
LasB-related cytotoxicity in csn-treated A549 cells ([11]; PAO1 or PA14 csn): dose-dependent reduction of LasB-related cytotoxicity
inhibition at 1 µM [12]: 14 ± 8%
inhibition at 100 µM ([13]; Pseudomonas aeruginosa, PA14, 100 µM compound concentration, read-out: Percent (%) growth inhibition of P. aeruginosa PA14): < 10%
antibacterial activity ([13]; up to 100 μM): do not possess any antibacterial activity
inhibition at 100 µM [14]: 25 ± 4%
inhibition at 100 µM [15]: 21 ± 1%
microsomal CLint at 1 μM [16]: < 5.8 µL/min/mg
